Test results taken from the supplement of paper PMC11451515.

Test system: P12-Ichikawa
Experiment: cell viability relative to DMSO control; higher = less cytotoxic
Conditions: 48 h
In short: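 Viability is a per-plate percentage relative to DMSO wells, with cell-free wells as background. CellTiter-Glo One luminescence was read after 48 h at 37°C on 1536-well plates (5 μl) of NOMO1 or SEM (500 cells/well) or P12-Ichikawa (1000 cells/well) leukemia cells. The cells had been adapted for at least four passages in each medium and pin-dosed with library compounds in DMSO from 47 μM to 0.79 nM in 11 threefold steps.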

[1] = HPLM + 10% dialyzed FBS, 0.000781 µM
[2] = HPLM + 10% dialyzed FBS, 0.00234 µM
[3] = HPLM + 10% dialyzed FBS, 0.00702 µM
[4] = HPLM + 10% dialyzed FBS, 0.0211 µM
[5] = HPLM + 10% dialyzed FBS, 0.0632 µM
[6] = HPLM + 10% dialyzed FBS, 0.19 µM
[7] = HPLM + 10% dialyzed FBS, 0.569 µM
[8] = HPLM + 10% dialyzed FBS, 1.71 µM
[9] = HPLM + 10% dialyzed FBS, 5.12 µM
[10] = HPLM + 10% dialyzed FBS, 15.4 µM
[11] = HPLM + 10% dialyzed FBS, 46.1 µM
[12] = RPMI 5 mM glucose + 10% FBS, 0.000781 µM
[13] = RPMI 5 mM glucose + 10% FBS, 0.00234 µM
[14] = RPMI 5 mM glucose + 10% FBS, 0.00702 µM
[15] = RPMI 5 mM glucose + 10% FBS, 0.0211 µM
[16] = RPMI 5 mM glucose + 10% FBS, 0.0632 µM
[17] = RPMI 5 mM glucose + 10% FBS, 0.19 µM
[18] = RPMI 5 mM glucose + 10% FBS, 0.569 µM
[19] = RPMI 5 mM glucose + 10% FBS, 1.71 µM
[20] = RPMI 5 mM glucose + 10% FBS, 5.12 µM
[21] = RPMI 5 mM glucose + 10% FBS, 15.4 µM
[22] = RPMI 5 mM glucose + 10% FBS, 46.1 µM
[23] = RPMI 5 mM glucose + 10% dialyzed FBS, 0.000781 µM
[24] = RPMI 5 mM glucose + 10% dialyzed FBS, 0.00234 µM
[25] = RPMI 5 mM glucose + 10% dialyzed FBS, 0.00702 µM
[26] = RPMI 5 mM glucose + 10% dialyzed FBS, 0.0211 µM
[27] = RPMI 5 mM glucose + 10% dialyzed FBS, 0.0632 µM
[28] = RPMI 5 mM glucose + 10% dialyzed FBS, 0.19 µM
[29] = RPMI 5 mM glucose + 10% dialyzed FBS, 0.569 µM
[30] = RPMI 5 mM glucose + 10% dialyzed FBS, 1.71 µM
[31] = RPMI 5 mM glucose + 10% dialyzed FBS, 5.12 µM
[32] = RPMI 5 mM glucose + 10% dialyzed FBS, 15.4 µM
[33] = RPMI 5 mM glucose + 10% dialyzed FBS, 46.1 µM

Row | SMILES | cell viability [1] [%] | cell viability [2] [%] | cell viability [3] [%] | cell viability [4] [%] | cell viability [5] [%] | cell viability [6] [%] | cell viability [7] [%] | cell viability [8] [%] | cell viability [9] [%] | cell viability [10] [%] | cell viability [11] [%] | cell viability [12] [%] | cell viability [13] [%] | cell viability [14] [%] | cell viability [15] [%] | cell viability [16] [%] | cell viability [17] [%] | cell viability [18] [%] | cell viability [19] [%] | cell viability [20] [%] | cell viability [21] [%] | cell viability [22] [%] | cell viability [23] [%] | cell viability [24] [%] | cell viability [25] [%] | cell viability [26] [%] | cell viability [27] [%] | cell viability [28] [%] | cell viability [29] [%] | cell viability [30] [%] | cell viability [31] [%] | cell viability [32] [%] | cell viability [33] [%]
1 | NCCCCCC(=O)O | 107 | 109 | 106 | 90.4 | 117 | 105 | 114 | 104 | 102 | 95.3 | 101 | 102 | 101 | 98.6 | 85.2 | 109 | 105 | 110 | 101 | 92.2 | 105 | 88.4 | 98.2 | 112 | 108 | 84.1 | 108 | 97.2 | 105 | 94.7 | 96 | 88.4 | 92.4
2 | CN(c1nccc(=O)[nH]1)C1CCN(c2nc3ccccc3n2Cc2ccc(F)cc2)CC1 | 108 | 104 | 109 | 110 | 111 | 119 | 118 | 118 | 114 | 112 | 110 | 113 | 110 | 101 | 114 | 124 | 111 | 116 | 109 | 115 | 115 | 123 | 100 | 108 | 109 | 108 | 125 | 113 | 121 | 112 | 123 | 119 | 112
3 | NC(=O)c1ccc(-c2nc(-c3ccc4c(c3)OCO4)c(-c3ccccn3)[nH]2)cc1 | 124 | 124 | 123 | 107 | 127 | 123 | 116 | 114 | 110 | 112 | 100 | 122 | 130 | 116 | 109 | 118 | 111 | 108 | 116 | 100 | 107 | 93.8 | – | – | – | – | – | – | – | – | – | – | –
4 | C/C(=C\c1csc(C)n1)[C@@H]1C[C@@H]2O[C@]2(C)CCC[C@H](C)[C@H](O)[C@@H](C)C(=O)C(C)(C)[C@@H](O)CC(=O)O1 | 33.8 | 32.1 | 28.8 | 58.9 | 28.1 | 22.6 | 23.1 | 25.3 | 30.8 | 17.1 | 21.4 | 18.2 | 19.1 | 23.7 | 44.1 | 24.6 | 22.6 | 24.3 | 22.7 | 25.6 | 24.2 | 27 | 44.5 | 34.4 | 31.2 | 58 | 37.6 | 35.4 | 32.6 | 32.8 | 43.7 | 35.5 | 38
5 | CCCCCCCCOc1ccccc1C(=O)Nc1ccc(C(=O)OCC[N+](C)(CC)CC)cc1 | 93.6 | 94.9 | 98.2 | 95.8 | 97.7 | 98.3 | 89.1 | 91.4 | 85.6 | 84.2 | 71.8 | 91.6 | 102 | 89.9 | 107 | 104 | 104 | 93.4 | 91.3 | 85.2 | 87.7 | 49 | 89.3 | 83.5 | 88.2 | 90.3 | 95 | 86.2 | 91 | 90.3 | 78.6 | 83.4 | 46.4
6 | CCc1c(O)cc(O)c(C(=O)c2ccc(OCCN3CCOCC3)c(OC)c2)c1CC(=O)N(CCOC)CCOC | 102 | 105 | 118 | 112 | 112 | 105 | 104 | 87.6 | 59.9 | 41.1 | 40.9 | 100 | 101 | 113 | 105 | 108 | 103 | 93.5 | 78 | 41.1 | 32.7 | 35.4 | 106 | 102 | 105 | 110 | 110 | 104 | 85 | 84.5 | 42.6 | 32 | 35
7 | CCCNCC(O)COc1ccccc1C(=O)CCc1ccccc1 (stereo not drawn) | 101 | 98.9 | 107 | 103 | 111 | 106 | 114 | 112 | 118 | 114 | 115 | 112 | 105 | 110 | 116 | 114 | 108 | 113 | 115 | 123 | 128 | 110 | 93.4 | 103 | 98.1 | 103 | 102 | 113 | 114 | 113 | 112 | 106 | 98.4
8 | CC(C[N+](C)(C)C)OC(N)=O (stereo not drawn) | 109 | 121 | 116 | 122 | 114 | 113 | 120 | 118 | 111 | 110 | 102 | – | – | – | – | – | – | – | – | – | – | – | 122 | 119 | 122 | 125 | 122 | 119 | 114 | 128 | 122 | 109 | 102
9 | O=P1(N(CCCl)CCCl)NCCCO1 (stereo not drawn) | 112 | 113 | 115 | 113 | 106 | 109 | 101 | 106 | 98.1 | 16.5 | 6.1 | 112 | 113 | 109 | 113 | 108 | 113 | 112 | 102 | 101 | 51.8 | 8.07 | 115 | 109 | 106 | 102 | 107 | 117 | 108 | 101 | 101 | 90 | 17.3
10 | CO[C@H]1/C=C/O[C@@]2(C)Oc3c(C)c(O)c4c(O)c(c(/C=N\N5CCN(C6CCCC6)CC5)c(O)c4c3C2=O)NC(=O)/C(C)=C\C=C\[C@H](C)[C@H](O)[C@@H](C)[C@@H](O)[C@@H](C)[C@H](OC(C)=O)[C@@H]1C | 112 | 122 | 117 | 109 | 104 | 98.2 | 98.2 | 71.5 | 19.8 | 1.51 | -0.607 | – | 87.9 | 93.7 | 78.7 | 70.7 | 70.7 | 68 | 51.8 | 5.83 | 0.395 | -0.516 | 101 | 111 | – | 87.7 | 84.1 | 74.6 | 85.2 | 61.8 | 13.6 | 5.16 | 0.889
11 | CN1CC/C(CC1)=C3\c4ccccc4CC(=O)c2sccc23 | 117 | 127 | 123 | 120 | 119 | 129 | 134 | 126 | 129 | 120 | 109 | – | – | – | – | – | – | – | – | – | – | – | – | – | – | – | – | – | – | – | – | – | –
12 | O=C(O)c1ccc(-c2c[nH]c3ncc(-c4ccccc4)cc23)cc1C1CCCC1 | 108 | 113 | 123 | 116 | 122 | 119 | 120 | 122 | 117 | 80.8 | 92.6 | 119 | 131 | 113 | 126 | 134 | 133 | 138 | 131 | 129 | 67 | 105 | 114 | 124 | 126 | 130 | 132 | 125 | 138 | 133 | 121 | 73.6 | 96.3
13 | CN(C)/[N+]([O-])=N/Oc1cc(ON[N+](=O)N2CCN(C(=O)c3cc(Cc4n[nH]c(=O)c5ccccc45)ccc3F)CC2)c([N+](=O)[O-])cc1[N+](=O)[O-] | 102 | 105 | 111 | 112 | 120 | 109 | 106 | 106 | 105 | 106 | 99.4 | 106 | 117 | 116 | 120 | 117 | 121 | 120 | 130 | 108 | 114 | 119 | 97 | 96.2 | 115 | 101 | 109 | 108 | 120 | 111 | 100 | 106 | 103
14 | CN1\N=N/C2=C(N=C[N]2C1=O)C(N)=O | 127 | 124 | 125 | 121 | 128 | 125 | 134 | 127 | 128 | 115 | 88.8 | – | – | – | – | – | – | – | – | – | – | – | – | – | – | – | – | – | – | – | – | – | –
15 | COc1ccc(CC2c3cc(OC)c(OC)cc3CC[N+]2(C)CCC(=O)OCCCCCOC(=O)CC[N+]2(C)CCc3cc(OC)c(OC)cc3C2Cc2ccc(OC)c(OC)c2)cc1OC (stereo not drawn) | 86.1 | 86.6 | 86.3 | 97.2 | 90.5 | 96.3 | 92 | 96.6 | 97.8 | 95.1 | 86.7 | 82.7 | 86.4 | 91.6 | 92.1 | 92.4 | 95.6 | 99.3 | 99.2 | 85.3 | 96.3 | 83.7 | 80.3 | 83.5 | 87.3 | 91.4 | 93.1 | 96.6 | 93.2 | 83.1 | 86.2 | 95.1 | 90.7
16 | FC(F)(F)C1=CC=C2C(SCCCCCO\C3=C\O\C(CN4CCOCC4)=C/C3=O)=CC=NC2=C1 | 107 | 122 | 123 | 120 | 129 | 126 | 132 | 123 | 123 | 107 | 88.1 | 110 | 119 | 109 | 114 | 113 | 109 | 125 | 121 | 111 | 94.4 | 66 | 112 | 118 | 113 | 116 | 130 | 116 | 127 | 119 | 115 | 104 | 78
17 | CCN1\C=C(C(O)=O)/C(=O)C2=C1C=C(N3CCN(C)CC3)C(=C2)F | 117 | 118 | 114 | 107 | 116 | 113 | 108 | 105 | 90.7 | 77.5 | 71.5 | 110 | 116 | 117 | 108 | 117 | 120 | 108 | 112 | 84 | 73.9 | 69.1 | 110 | 121 | 112 | 121 | 109 | 123 | 108 | 104 | 83.1 | 69.1 | 61.9
